From patent US20140343001A1, “INDOLE DERIVATIVES INHIBITORS OF ENZYME LACTATE DEHYDROGENASE (LDH)” (Universitá di Pisa, priority 2011, published 2014) come the findings set out here.

In one assay the test system is HeLa cells. Description: Determination of cellular production of lactate (GC/MS). Type of assay: cell-based. The settings on record: 8 hours, concentrations from 50 to 200 μM, comparable or superior to 2-DeoxGlu at 10 mM.
The next assay relates to H1299. Description: Inhibition of tumor cell growth method (a), sulforhodamine B assay. Format: cell-based. The settings on record: Homo sapiens, NCI-H1299; H1299, 72 hours, SRB. The procedure: (§1) The plates were incubated at 37° C. in an atmosphere composed of 95% air and 5% CO2 for 72 hours. The culture medium was then removed and the cells were fixed by addition of 50 μL of a 10% solution of trichloroacetic acid in water at 4° C. in each well. The plates were incubated at 4° C. for at least one hour, after which the colorimetric assay of sulforhodamine B (SRB) was carried out to determine the amount of biomass remaining in each well as described in previously developed methodologies [Vichai, V.; Kirtikara, K. Nat. Protoc. […] Briefly, the plates were washed several times with water and dried prior to the addition of 50 μL of a solution of dye sulforhodamine B (composed by 0.057% weight/weight of sulforhodamine B in 1% acetic acid) to each well. After 30 minutes of incubation, the unbound dye was removed by washing six times with 1% acetic acid. […] After an incubation period of 30 minutes, the absorbance in each well was read at a wavelength of 510 nm in a microplate reader. The cells treated only with vehicle consisting of a 1% solution of DMSO (vehicle) were used as control of 100% of live cells in the biomass and the wells incubated with the vehicle alone (without cells) were used to determine the baseline (0%) of live biomass. The IC50 values were calculated using the software SoftMax Pro (Molecular Devices, Sunnyvale, Calif.).

For the next assay, the system named is H226. The assay is described as above. Format: cell-based. The settings on record: Homo sapiens, NCI-H226; H226, 72 hours, SRB. The procedure:
as §1

The test system of another assay is HeLa. Described as above. Format: cell-based. The settings on record: Homo sapiens, 72 hours, SRB. The procedure: as §1
Another assay concerns IGROV-1. The description is as above. Type of assay: cell-based. The settings on record: Homo sapiens; IGROV-1, 72 hours, SRB. The procedure:
as §1

A further assay relates to MCF-7. The assay is described as above. Type of assay: cell-based. The settings on record: Homo sapiens, MCF7; MCF-7, 72 hours, SRB. The protocol:
as §1

In a further assay the test system is A549 cells. Description: Inhibition of tumor cell growth method (b), CellTiter-Glo. Type of assay: cell-based. The settings on record: Homo sapiens, A549, 72 h. The text has this:
(§2) CellTiter-Glo® Luminescent Cell Viability Assay (Promega) is a homogeneous method of determining the number of viable cells in culture based on quantitation of the present ATP, which indicates the presence of metabolically active cells. The homogeneous assay procedure involves addition of a single reagent (CellTiter-Glo® Reagent) directly to the cells, which leads to cell lysis and generation of a luminescent signal proportional to the amount of the ATP and the number of cells present in culture. The assay relies on the properties of a proprietary thermostable luciferase (Ultra-Glo® recombinant luciferase), which generates a luminescent signal.
(§3) After 72 h, a volume of CellTiter-Glo® Reagent equal to the volume of cell culture medium was added. The content was mixed for 2 min to induce cell lysis. The luminescence was recorded after further 10 min at RT in order to obtain a stable luminescent signal.
(§4) The IC50 was calculated using GraphPad Software.

The next assay deals with H1975. The assay is described as above. Format: cell-based. The settings on record: Homo sapiens, NCI-H1975, H1975, 72 h.
Description: as §2, §3, §4

A further assay concerns the target T1, hLDH5 (LDH-A) (Homo sapiens, UniProt P00338).
T1 construct: purchased LEEBIO (USA)
Kind of assay: Enzyme inhibition of human lactate dehydrogenase isoform 5. Type of assay: biochemical. The settings on record: ranges of values; 37° C., pH 7.4; read-out: inhibitory activity against hLDH5 (Ki).

As for `COC(=O)c1cc2c(C(F)(F)F)cc(-c3ccccc3)cc2n1O[C@@H]1O[C@H](CO)[C@@H](O)[C@H](O)[C@H]1O` [Example 3, methyl 6-phenyl-1-(β-D-glucopyranosyl)oxy-4-(trifluoromethyl)-1H-indole-2-carboxylate], the “reduction of cellular production of lactate” value (“reduction” for short) with HeLa cells is recorded as “reduce effectively cellular production of lactate”. Besides, the IC50 was less than 40 µM in the assay on H1299; less than 26 µM with H226; less than 17 µM with HeLa; less than 31 µM in the assay with IGROV-1; less than 35 µM in the assay with MCF-7; not above 31 µM in the assay with A549 cells. Moreover, in the assay with H1975, the IC50 is not above 31 µM.
As to `O=C(O)c1cc2c(C(F)(F)F)cc(-c3ccccc3)cc2n1O` [1-hydroxy-6-phenyl-4-trifluoromethyl-1H-indol-2-carboxylic acid, reference compound], the IC50 in the assay with H1299 stood at 141 µM; in the assay on H226 it was 121 µM; with HeLa it was 44 µM; in the assay with IGROV-1, 123 µM; in the assay on MCF-7, 124 µM; with A549 cells, 60 µM. In the assay with H1975, this compound had an IC50 of 57 µM.
Regarding `COC(=O)c1cc2c(C(F)(F)F)cc(-c3ccc(Cl)cc3Cl)cc2n1O` [Example 8, methyl 6-(2,4-dichlorophenyl)-1-hydroxy-4-(trifluoromethyl)-1H-indole-2-carboxylate], the “reduction” value in the assay on HeLa cells is listed as “reduce effectively cellular production of lactate”. For the same compound, the IC50 was less than 15 µM with HeLa, less than 17 µM in the assay on MCF-7, not above 31 µM in the assay with A549 cells and not above 31 µM with H1975. In addition, the inhibition constant Ki at hLDH5 (LDH-A) was in the range of 1 to 10 µM.
On to `CCOC(=O)c1cc2c(C(F)(F)F)cc(-c3ccccc3)cc2n1O` [Example 1, ethyl 1-hydroxy-6-phenyl-4-(trifluoromethyl)-1H-indole-2-carboxylate], for which the “reduction” value in the assay with HeLa cells is “reduce effectively cellular production of lactate”. The IC50 was less than 40 µM in the assay with H1299; less than 26 µM in the assay with H226; less than 17 µM with HeLa; less than 31 µM in the assay on IGROV-1; less than 35 µM with MCF-7; not above 31 µM in the assay on A549 cells. In the assay on H1975, the IC50 is not above 31 µM. Further, the Ki on hLDH5 (LDH-A) was in the range of 1 to 10 µM.
